Where a SMILES comes first, the peptide text is derived from it. [ ]: non-standard residue; d: D form.
Assays:
[1] = system: clinical strains of Escherichia coli; test: MIC, clinical strains of E. coli; assay type: cell-based; parameters: unit: μg/ml; conditions: microdilution, Muller Hinton broth-cation adjusted, 0.02% BSA, 0.2% acetic acid
Procedure, shortened: (§1)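 MIC = lowest peptide concentration showing no visual growth after 20–24 h at 37° C. Range 0.125–128 μg/ml; bacteria at 5.0×10^5 cfu/ml in MH broth, polypropylene microdilution format; yeasts in potato dextrose broth.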

[2] = system: clinical strains of Klebsiella pneumoniae; test: MIC, clinical strains of K. pneumoniae; assay type: cell-based; parameters: unit: μg/ml; conditions: microdilution, Muller Hinton broth-cation adjusted, 0.02% BSA, 0.2% acetic acid
Procedure, shortened: as §1

[3] = system: clinical strains of Candida albicans; test: MIC, clinical yeast strains, Candida albicans; assay type: cell-based; parameters: unit: μg/ml
Procedure, shortened: as §1

[4] = system: clinical strains of Enterobacter cloacae; test: MIC, clinical strains of Enterobacter cloacae; assay type: cell-based; parameters: unit: μg/ml; conditions: microdilution, Muller Hinton broth-cation adjusted, 0.02% BSA, 0.2% acetic acid
Procedure, shortened: as §1

[5] = system: clinical strains of Pseudomonas aeruginosa; test: MIC, clinical strains of P. aeruginosa; assay type: cell-based; parameters: unit: μg/ml; conditions: microdilution, Muller Hinton broth-cation adjusted, 0.02% BSA, 0.2% acetic acid
Procedure, shortened: as §1

[6] = system: clinical strains of C. parapsilosis; test: MIC, clinical yeast strains, C. parapsilosis; assay type: cell-based, Candida parapsilosis; parameters: unit: μg/ml
Procedure, shortened: as §1

[7] = system: clinical strains of Staphylococcus aureus; test: MIC, clinical strains of S. aureus; assay type: cell-based; parameters: unit: μg/ml; conditions: microdilution, Muller Hinton broth-cation adjusted, 0.02% BSA, 0.2% acetic acid
Procedure, shortened: as §1

[8] = system: clinical strains of Streptococcus pneumoniae; test: MIC, clinical strains of Streptococcus pneumoniae; assay type: cell-based; parameters: unit: µg/mL; conditions: microdilution, Muller Hinton broth-cation adjusted, 0.02% BSA, 0.2% acetic acid
Procedure, shortened: as §1

[9] = system: clinical strains of C. quillermondiae; test: MIC, clinical yeast strains, C. quillermondiae; assay type: cell-based; conditions: C. quillermondiae clinical yeast strain 1
Procedure, shortened: as §1

[10] = system: clinical strains of C. glabrata; test: MIC, clinical yeast strains, C. glabrata; assay type: cell-based, Candida glabrata; parameters: unit: μg/ml
Procedure, shortened: as §1

[11] = system: clinical strains of Proteus mirabilis; test: MIC, clinical strains of Proteus mirabilis; assay type: cell-based; parameters: unit: µg/mL; conditions: microdilution, Muller Hinton broth-cation adjusted, 0.02% BSA, 0.2% acetic acid
Procedure, shortened: as §1

[12] = system: clinical strains of Serratia marcescens; test: MIC, clinical strains of Serratia marcescens; assay type: cell-based; parameters: unit: µg/mL; conditions: microdilution, Muller Hinton broth-cation adjusted, 0.02% BSA, 0.2% acetic acid
Procedure, shortened: as §1

[13] = Escherichia coli clinical strain 1
[14] = Escherichia coli clinical strain 2
[15] = Escherichia coli clinical strain 3
[16] = Escherichia coli clinical strain 4
[17] = Escherichia coli clinical strain 5
[18] = Klebsiella pneumoniae clinical strain 1
[19] = Klebsiella pneumoniae clinical strain 2
[20] = Klebsiella pneumoniae clinical strain 3
[21] = Klebsiella pneumoniae clinical strain 4
[22] = Klebsiella pneumoniae clinical strain 5
[23] = Candida albicans clinical yeast strain 1
[24] = Candida albicans clinical yeast strain 2
[25] = Candida albicans clinical yeast strain 3
[26] = Candida albicans clinical yeast strain 4
[27] = Candida albicans clinical yeast strain 5
[28] = Enterobacter cloacae clinical strain 1
[29] = Enterobacter cloacae clinical strain 2
[30] = Enterobacter cloacae clinical strain 3
[31] = Enterobacter cloacae clinical strain 4
[32] = Enterobacter cloacae clinical strain 5
[33] = Pseudomonas aeruginosa clinical strain 1
[34] = Pseudomonas aeruginosa clinical strain 2
[35] = Pseudomonas aeruginosa clinical strain 3
[36] = Pseudomonas aeruginosa clinical strain 4
[37] = Pseudomonas aeruginosa clinical strain 5
[38] = C. parapsilosis clinical yeast strain 1
[39] = C. parapsilosis clinical yeast strain 2
[40] = C. parapsilosis clinical yeast strain 3
[41] = C. parapsilosis clinical yeast strain 4
[42] = Staphylococcus aureus clinical strain 1
[43] = Staphylococcus aureus clinical strain 2
[44] = Staphylococcus aureus clinical strain 3
[45] = Staphylococcus aureus clinical strain 4
[46] = Staphylococcus aureus clinical strain 5
[47] = Streptococcus pneumoniae clinical strain 1
[48] = Streptococcus pneumoniae clinical strain 2
[49] = Streptococcus pneumoniae clinical strain 3
[50] = Streptococcus pneumoniae clinical strain 4
[51] = Streptococcus pneumoniae clinical strain 5
[52] = C. glabrata clinical yeast strain 1
[53] = C. glabrata clinical yeast strain 2
[54] = C. glabrata clinical yeast strain 3
[55] = C. glabrata clinical yeast strain 4
[56] = Proteus mirabilis clinical strain 1
[57] = Proteus mirabilis clinical strain 2
[58] = Proteus mirabilis clinical strain 3
[59] = Proteus mirabilis clinical strain 4
[60] = Proteus mirabilis clinical strain 5
[61] = Serratia marcescens clinical strain 1
[62] = Serratia marcescens clinical strain 2
[63] = Serratia marcescens clinical strain 3
[64] = Serratia marcescens clinical strain 4
[65] = Serratia marcescens clinical strain 5

Structure (SMILES): CC(C)C[C@@H](NC(=O)[C@@H](Cc1c[nH]c2ccccc12)NC(=O)[C@@H](Cc1ccccc1)NC(=O)[C@@H](Cc1c[nH]c2ccccc12)NC(=O)[C@@H](CCCCN)NC(=O)[C@@H](CCCNC(=N)N)NC(=O)[C@H](N)Cc1c[nH]c2ccccc12)C(=O)N[C@H](Cc1ccccc1)C(=O)N[C@H](CCCCN)C(=O)N[C@H](CCCCN)C(=O)N[C@H](CCCNC(=N)N)C(=O)O [Chain309D] (H-[dW][dR][dK][dW][dF][dW][dL][dF][dK][dK][dR]-OH)
- Minimum inhibitory concentration [1, 13]: 0.5
- Minimum inhibitory concentration [1, 14]: 32
- Minimum inhibitory concentration [1, 15]: 16
- Minimum inhibitory concentration [1, 16]: 32
- Minimum inhibitory concentration [1, 17]: 16
- Minimum inhibitory concentration [2, 18]: 128
- Minimum inhibitory concentration [2, 19]: 32
- Minimum inhibitory concentration [2, 20]: >128
- Minimum inhibitory concentration [2, 21]: 32
- Minimum inhibitory concentration [2, 22]: 128
- Minimum inhibitory concentration [3, 23]: 32
- Minimum inhibitory concentration [3, 24]: 32
- Minimum inhibitory concentration [3, 25]: 16
- Minimum inhibitory concentration [3, 26]: 16
- Minimum inhibitory concentration [3, 27]: 32
- Minimum inhibitory concentration [4, 28]: >128
- Minimum inhibitory concentration [4, 29]: 128
- Minimum inhibitory concentration [4, 30]: 64
- Minimum inhibitory concentration [4, 31]: 64
- Minimum inhibitory concentration [4, 32]: 32
- Minimum inhibitory concentration [5, 33]: 16
- Minimum inhibitory concentration [5, 34]: 32
- Minimum inhibitory concentration [5, 35]: 16
- Minimum inhibitory concentration [5, 36]: 32
- Minimum inhibitory concentration [5, 37]: 8
- Minimum inhibitory concentration [6, 38]: 64
- Minimum inhibitory concentration [6, 39]: 64
- Minimum inhibitory concentration [6, 40]: 32
- Minimum inhibitory concentration [6, 41]: 16
- Minimum inhibitory concentration [7, 42]: 8
- Minimum inhibitory concentration [7, 43]: 16
- Minimum inhibitory concentration [7, 44]: 8
- Minimum inhibitory concentration [7, 45]: 8
- Minimum inhibitory concentration [7, 46]: 8
- Minimum inhibitory concentration [8, 47]: 64
- Minimum inhibitory concentration [8, 48]: 64
- Minimum inhibitory concentration [8, 49]: 64
- Minimum inhibitory concentration [8, 50]: 64
- Minimum inhibitory concentration [8, 51]: 64
- Minimum inhibitory concentration [9]: 8
- Minimum inhibitory concentration [10, 52]: 32
- Minimum inhibitory concentration [10, 53]: 64
- Minimum inhibitory concentration [10, 54]: 4
- Minimum inhibitory concentration [10, 55]: 128
- Minimum inhibitory concentration [11, 56]: >128
- Minimum inhibitory concentration [11, 57]: >128
- Minimum inhibitory concentration [11, 58]: >128
- Minimum inhibitory concentration [11, 59]: >128
- Minimum inhibitory concentration [11, 60]: >128
- Minimum inhibitory concentration [12, 61]: >128
- Minimum inhibitory concentration [12, 62]: >128
- Minimum inhibitory concentration [12, 63]: >128
- Minimum inhibitory concentration [12, 64]: >128
- Minimum inhibitory concentration [12, 65]: >128

Structure (SMILES): CC(C)C[C@@H](NC(=O)[C@H](N)CCCNC(=N)N)C(=O)N[C@H](CCCCN)C(=O)N[C@H](Cc1c[nH]c2ccccc12)C(=O)N[C@H](Cc1ccccc1)C(=O)N[C@H](Cc1c[nH]c2ccccc12)C(=O)N[C@H](CC(C)C)C(=O)N[C@H](Cc1ccccc1)C(=O)N[C@H](CCCNC(=N)N)C(=O)N[C@H](CCCCN)C(=O)N[C@H](CCCNC(=N)N)C(=O)O [Chain307D] (H-[dR][dL][dK][dW][dF][dW][dL][dF][dR][dK][dR]-OH)
- Minimum inhibitory concentration [1, 13]: 4
- Minimum inhibitory concentration [1, 14]: 4
- Minimum inhibitory concentration [1, 15]: 4
- Minimum inhibitory concentration [1, 16]: 2
- Minimum inhibitory concentration [1, 17]: 4
- Minimum inhibitory concentration [2, 18]: 8
- Minimum inhibitory concentration [2, 19]: 8
- Minimum inhibitory concentration [2, 20]: 16
- Minimum inhibitory concentration [2, 21]: 16
- Minimum inhibitory concentration [2, 22]: 4
- Minimum inhibitory concentration [3, 23]: 16
- Minimum inhibitory concentration [3, 24]: 16
- Minimum inhibitory concentration [3, 25]: 16
- Minimum inhibitory concentration [3, 26]: 16
- Minimum inhibitory concentration [3, 27]: 16
- Minimum inhibitory concentration [4, 28]: 4
- Minimum inhibitory concentration [4, 29]: 8
- Minimum inhibitory concentration [4, 30]: 4
- Minimum inhibitory concentration [4, 31]: 4
- Minimum inhibitory concentration [4, 32]: 4
- Minimum inhibitory concentration [5, 33]: 16
- Minimum inhibitory concentration [5, 34]: 16
- Minimum inhibitory concentration [5, 35]: 16
- Minimum inhibitory concentration [5, 36]: 8
- Minimum inhibitory concentration [5, 37]: 8
- Minimum inhibitory concentration [6, 38]: 16
- Minimum inhibitory concentration [6, 39]: 8
- Minimum inhibitory concentration [6, 40]: 8
- Minimum inhibitory concentration [6, 41]: 8
- Minimum inhibitory concentration [7, 42]: 2
- Minimum inhibitory concentration [7, 43]: 2
- Minimum inhibitory concentration [7, 44]: 2
- Minimum inhibitory concentration [7, 45]: 2
- Minimum inhibitory concentration [7, 46]: 2
- Minimum inhibitory concentration [8, 47]: 4
- Minimum inhibitory concentration [8, 48]: 4
- Minimum inhibitory concentration [8, 49]: 4
- Minimum inhibitory concentration [8, 50]: 2
- Minimum inhibitory concentration [8, 51]: 2
- Minimum inhibitory concentration [9]: 4
- Minimum inhibitory concentration [10, 52]: 8
- Minimum inhibitory concentration [10, 53]: 16
- Minimum inhibitory concentration [10, 54]: 8
- Minimum inhibitory concentration [10, 55]: 16
- Minimum inhibitory concentration [11, 56]: >128
- Minimum inhibitory concentration [11, 57]: 128
- Minimum inhibitory concentration [11, 58]: 128
- Minimum inhibitory concentration [11, 59]: >128
- Minimum inhibitory concentration [11, 60]: >128
- Minimum inhibitory concentration [12, 61]: >128
- Minimum inhibitory concentration [12, 62]: >128
- Minimum inhibitory concentration [12, 63]: 128
- Minimum inhibitory concentration [12, 64]: >128
- Minimum inhibitory concentration [12, 65]: >128
